This is an account of results in US20210246128A1, “BICYCLE TOPOISOMERASE I INHIBITING COMPOUNDS, PROCESS FOR PREPARATION AND USE THEREOF” (Council of Scientific & Industrial Research, priority 2018, published 2021).

Data set [1] relates to TDP1−/− cells. Briefly: Cytotoxicity assay, TDP1−/−. The note with it: read-out: IC50 cytotoxicity TDP1−/−. As to the method: (§1) The percent inhibition of viability for each concentration of compound was calculated with respect to the control and IC50 (μM) values were estimated. Each point corresponds to the mean±S.D of at least three experiments in duplicates. Error bars represent SD (n=3).

Data set [2] can be described thus: Plasma stability assay. Format: in vitro ADME. The note with it: pH 7.4, 37° C., 1 μM. The procedure: The stock solution of 10 mM of test compound in DMSO was prepared and stored at 4° C. 25 μM stock of test compound was prepared in acetonitrile: water by diluting from 10 mM stock (i.e. 2.5 μL of 10 mM stock solution was added to 997.5 μL of acetonitrile: water (50:50). The frozen plasma was thawed at room temperature and centrifuged at 1400×RCF (relative centrifugal force) 4° C., for 15 minutes. Approximately 90% of the clear supernatant fraction was transferred to a separate tube and was used for the assay.
For 0 min samples, plasma was heat inactivated at 56° C. for 45 min. To 72 μL of heat inactivated plasma, 3 μL of 25 μM test compound was added. A 25 μL aliquot of the mixture was taken and crashed with 200 μL of acetonitrile containing internal standard and further processed along with other time points. For other time point samples, final working stock of 1 μM was prepared by diluting in plasma (i.e. 8 μL of 25 μM acetonitrile:water stock was added to 192 μL of plasma). 200 μL of plasma containing the test compound was incubated for 2 hrs at 37° C. in shaker water bath with gentle shaking. 25 μL aliquot of sample at 0, 15, 30, 60 and 120 min was precipitated immediately with 200 μL of acetonitrile containing internal standard and centrifuged at 4000×RCF, 4° C. for 20 minutes. 150 μL of supernatant was diluted with 150 μL of water and analyzed on LC-MS/MS.

Data set [3] can be described thus: Cytotoxicity assay, HEK293. The note with it: human.
The nature of data set [4]: Caco-2 permeability (21 day culture of Caco-2 cell monolayer). It is filed as in vitro ADME. The note with it: human; for recovery at 120 min, 10 μM: Caco-2, pH 7.4, Caco-2. The procedure:
5 mL of 100 mM sodium pyruvate, 5 mL of 10× non-essential amino acids, 5 mL of penstrep were added to 100 mL of heat inactivated foetal bovine serum to 385 mL of DMEM aseptically and mixed thoroughly. One vial of Hank's balanced salt (Sigma-H1387) was dissolved in 900 mL of milli Q water; adjusted the pH to 7.4 and made up the volume to 1000 mL with the same. The solution was filter sterilized and stored at 4° C. Stock solution of test compound (10 mM) was prepared in DMSO. 10 mM stock was diluted with HBSS Buffer to a final concentration of 10 μM.
250 μL of DMEM was added to the basal compartment of 96 well multi-screen Caco-2 plate and seeded 12000 cells/well (0.16×10^6 cells/ml) in all the apical wells required and one well with only media as blank without cells, placed the Caco-2 plate in CO2 incubator at 37° C. for proliferation of cells.
On the day of assay, medium was removed and washed twice with HBSS Buffer and incubated with HBSS buffer for 30 min in an incubator and wells with TEER values >230 ohm·cm^2 were selected for the incubation. 75 μL of test compound was added to apical wells and 250 μL of HBSS buffer with 2% BSA was added to basal wells. 25 μL of basal samples was collected at 120 min and processed as stated below.
250 μL of test compound was added to basal wells and 75 μL of HBSS buffer with 2% BSA was added to apical wells. 25 μL of apical samples was collected at 120 min and processed as stated below.
Single point calibration curve in HBSS buffer with 2% BSA was used. Donor samples were diluted 1:1 with HBSS containing 2% BSA and receiver samples were diluted with 1.1 HBSS buffer and precipitated with 200 μL of acetonitrile containing internal standard and vortexed for 5 min @ 1000 rpm, centrifuged at 4000 rpm for 10 min. Finally 100 μL of supernatant was diluted with 200 μL of water and submitted for LC-MS/MS analysis.
(Caco-2 monolayers are a common model of the intestinal barrier.)

Data set [5] in a line: Lipophilicity assay (octanol/buffer Log D). The note with it: octanol / sodium phosphate buffer pH 7.4.
For data set [6], the system named is calf thymus (CT) DNA. Briefly: Ethidium bromide (EtBr) displacement assay. Format: binding. The note with it: 1 μM EtBr, 5 nM CT DNA, 0-200 μM compound.
The test system of data set [7] is human ovarian adenocarcinoma cell lines (NIH:OVCAR-3). Briefly: Cytotoxicity assay, NIH:OVCAR-3. The following applies: OVCAR-3, read-out: IC50 cytotoxicity NIH:OVCAR-3.
In data set [8] the test system is MCF7 cells. Briefly: γH2AX assay (immunofluorescence confocal microscopy). It is filed as cell-based, human. The following applies: after washing out from media. As to the method: Quantification of comparative ability of CPT and 18 to form DSBs was quantified after 3 hours and 5 hours by measuring γH2AX intensity per nucleus after treatment and after the removal of 18 or CPT was obtained from immunofluorescence confocal microscopy. […] But CPT-induced γH2AX have a short half-life. […] (T. Furuta. J. Biol. Chem. 2003, 278, 20303-20312).

The subject of data set [9] is human colon carcinoma cell lines (HCT116). Nature of the data set: Cytotoxicity assay, HCT116. The following applies: HCT-116, read-out: IC50 cytotoxicity HCT116.
For data set [10], the system named is noncancerous human embryonic kidney (HEK293) cells. Nature of the data set: Cytotoxicity assay, HEK293. The following applies: read-out: IC50 cytotoxicity HEK293; HEK293 (noncancerous).
Data set [11] has as its system TDP1+/+ MEFs. Briefly: Cytotoxicity assay, TDP1+/+ MEFs. It is filed as cell-based. The procedure: as §1
Data set [12] in a line: Solubility assay (pH 7.4 pION buffer, UV). Format: physicochemical. The note with it: pH 7.4 buffer, 18 hours incubation. As to the method: 5 μL of 20 mM DMSO stock from the stock plate was added to the reaction deep well plate containing 495 μL of pH 7.4 pION buffer (including DMSO control) respectively and the samples were mixed and incubated for 18 hours. The plate was sealed well during the incubation process. The DMSO content in the sample was <1.0%. The concentration in deep well plates was 200 μM. 4 μL of 20 mM stock (including DMSO control) was added to 996 μL of acetonitrile to prepare the working stock plate. 75 μL of working stock was added to 75 μL of blank buffer and read on spectrophotometer as reference plate at 240 nm. At the end of the incubation period, 100 μL of sample from storage plate was vacuum filtered using a filter plate. This step wets the filters and the filtrate was discarded. Another 200 μL of the sample from deep well plate was vacuum filtered in to a new filter collection plate. 75 μL of the filtrate from the filter collection plate was transferred to a UV sample plate. 75 μL of acetonitrile was added to this UV plate. The solution was mixed and the spectrum was read using the UV spectrophotometer at 240 nm. Plates were read on spectramax using SoftMax Pro software version 5.3.

Data set [13] concerns Caco-2 cell monolayer. The note with it: cited from earlier work.

Read-outs that look alike come from different tables or passages of the source.

Consider `COc1ccc(-c2ccc3ncc(-c4nnco4)c(NCCCn4ccnc4)c3c2)cc1` [Compound 18, N-(3-(1H-imidazol-1-yl)propyl)-6-(4-methoxyphenyl)-3-(1,3,4-oxadiazol-2-yl)quinolin-4-amine], for which the IC50 in data set [1] is 1020 nM; in [3], 8.34 µM; in data set [7], 2350 nM; in data set [9], 2340 nM. Besides, the “Mean % remaining at 2 hrs in human Plasma” value in data set [2] is 93.34%. Moreover, the results for the recovery at 120 min, 10 μM in [4] (read-out: A to B % Recovery) and in data set [4] (read-out: B to A % Recovery) were 33.2% and 44.2%, respectively. Besides, the Papp A→B at 120 min, 10 μM in data set [4] (pH 7.4, Caco-2, 10 μM, 120 min, read-out: Papp Apical to Basal) was 7.42 ×10⁻⁶ cm/s. Further, the Papp B→A at 120 min, 10 μM in data set [4] (pH 7.4, Caco-2, 10 μM, 120 min, read-out: Papp Basal to Apical) amounted to 11.6 ×10⁻⁶ cm/s. Moreover, in [5], the “Log D @ pH 7.40 Mean” value is recorded as 2.48. Further, the “displacement of bound EtBr (DNA intercalation)” value in data set [6] is listed as “no displacement of fluorophore even at high concentration (200 μM)”. The “persistence of γH2AX foci / DSBs after removal of drug” value in data set [8] is “persistent and less reversible DNA double-strand breaks (DSBs)”.

As for `CC[C@@]1(O)C(=O)OCc2c1cc1n(c2=O)Cc2cc3ccccc3nc2-1` [Camptothecin, reference compound], the IC50 in [1] (TDP1−/−) was found to be 1570 ± 210 nM; in data set [10], 8.75 ± 0.63 µM; in data set [11] it was 2800 ± 470 nM. Moreover, the “Mean % remaining at 2 hrs in human Plasma” value in [2] worked out at 15.70%. The “persistence of γH2AX foci / DSBs after removal of drug” value in data set [8] is reported as “faster disappearance of γH2AX foci”. Moreover, the “Avg. Solubility (μg/mL) at pH 7.4” value in data set [12] stood at 2.5 μg/mL. For the same compound, the “Papp Apical to Basal” value in [13] is on record as 10.5 10^−6 cm/sec. Moreover, the “Papp Basal to Apical” value in [13] was 35.8 10^−6 cm/sec.
